Test system: FXa
Settings: in vivo
Experimental: New Zealand white rabbits of both sexes, weighing 2.5-3.5 kg were used in all experiments. […] The rabbits were anaesthetized with Mebumal, 20 mg/kg. The anaesthesia was subsequently maintained as required. The animals were shaved and a medial laparotomy performed. The test compounds were then injected directly into the duodenum, after which the peritoneal cavity was closed. Rectal administration was performed by means of a syringe coupled to a plastic tube designed for use in the rectum of rabbits. The dosage was checked by weighing of the syringe and connecting tubings before and after administering the test compounds.
Blood samples (1 ml) were collected at 0.25, 0.5, 0.75, 1, 1.5, 2, 2.5, 3, 4, 5, 6, 7, 8, 9, and 10 hours with the aid of catheter inserted in the ear artery and mixed with sodium […] to a final concentration of 0.04M. The tubes were kept on ice until centrifuged at 800 g for 10 minutes. The anti-FXa activity in plasma was determined with an initial rate assay using bovine FXa (Kabi Pharmacia) and the chromogenic substrate S-2222.

heparin
degree of absorption compared with Fragmin: significantly lower than that of Fragmin®
rectal absorption when admixed with the lipid system: significantly increased
anti-FXa activity detected in plasma (2 mg/kg): detectable levels of anti-FXa activity
average absorption (rabbit, 2 mg/kg): 15.7%±8
